From ChEMBL document CHEMBL5608141, “Identification of compartment-specific drug sensitivities in CRC organoid-stroma co-cultures” (2024)

Columns and labels:
Format in all cases: functional, Homo sapiens
Parameters in all cases: dose or concentration left out as unconfirmed
[1] = tested on: Colon cancer organoid; experiment: Identification of compartment-specific drug sensitivities in O20 CRC organoid-stroma F20 CAF co-cultures. Organoid is transduced with Lucferase2-P2A-EGFP lentivirus, fibroblast with Renilla-dsRed lentivirus. Dual-Glo Luciferase assay is used to report viability data.
[2] = tested on: Colon cancer organoid; experiment: Identification of compartment-specific drug sensitivities in O06 CRC organoid-stroma F06 CAF co-cultures. Organoid is transduced with Lucferase2-P2A-EGFP lentivirus, fibroblast with Renilla-dsRed lentivirus. Dual-Glo Luciferase assay is used to report viability data.
[3] = tested on: Colon cancer organoid; experiment: Identification of compartment-specific drug sensitivities in O14 CRC organoid-stroma F14 CAF co-cultures. Organoid is transduced with Lucferase2-P2A-EGFP lentivirus, fibroblast with Renilla-dsRed lentivirus. Dual-Glo Luciferase assay is used to report viability data.
[4] = Transduced with Lucferase2-P2A-EGFP lentivirus
[5] = Transduced with Renilla-dsRed lentivirus

Structure (SMILES) | Cell Viability [1, 4] [%] | Cell Viability [1, 5] [%] | Cell Viability [2, 4] [%] | Cell Viability [2, 5] [%] | Cell Viability [3, 4] [%] | Cell Viability [3, 5] [%]
CN1CCN(C(=O)C(C)(C)c2ccc(C(=O)Nc3cn4cc(-c5cc(C(C)(C)C)cc(C(C)(C)C)c5)ccc4n3)cc2)CC1 [T3-CLK-N] | 83.0148 | 112.725 | 112.366 | 80.0588 | 123.449 | 101.908
COc1cc(C#N)ccc1S(=O)(=O)Nc1ccc2c(c1)cc(C)c(=O)n2C | 96.9289 | 124.149 | 94.9001 | 111.598 | 105.069 | 87.2253
COc1ccc2c(c1)O[C@H](c1ccc(OC)c(OC)c1)C[C@@H]2NC(=O)C1(c2ccc3c(c2)OC(F)(F)O3)CC1 [A-1596584] | 73.1553 | 142.746 | 86.7173 | 88.6658 | 91.0132 | 118.771
Cc1nc(N2CC[C@H](O)C2)ncc1-c1cc(C(F)(F)F)cc2[nH]ncc12 | 47.2711 | 153.575 | 124.32 | 144.84 | 76.9456 | 116.548
O=C(NOC[C@H](O)CO)c1ccc(F)c(F)c1Nc1ccc(I)cc1F [MIRDAMETINIB] | 3.902 | 83.5811 | 8.8965 | 49.9042 | 7.045 | 23.0385
CC(C)NC(=O)N1CC[C@H](NC2=Nc3cc(F)ccc3N(CC(F)F)c3ccc(Cl)cc32)C1 | 55.1322 | 142.836 | 50.3719 | 97.5535 | 92.2307 | 99.3787
CC(=O)c1c(NS(C)(=O)=O)c2cc(-c3ccc(Cl)cc3)c(-c3ccc(Cl)cc3Cl)nc2n(C)c1=O [MRL-CB1-NC] | 159.821 | 122.581 | 117.339 | 76.9916 | 112.083 | 107.66
COc1cc(Nc2ncc3c(n2)-c2ccc(Cl)cc2C(c2c(F)cccc2OC)=NC3)ccc1C(=O)O [ALISERTIB] | 6.089 | 322.747 | 7.435 | 169.322 | 16.3683 | 117.657
CCCCNc1ncc(-c2ccc(CN3CCOCC3)cn2)c(N[C@H]2CC[C@H](O)CC2)n1 | 8.867 | 223.767 | 22.8495 | 123.664 | 12.9881 | 77.7799
CCn1c(-c2nc3cc(C(=O)N4CCCC(N)C4)ccc3n2C)cc2ccccc21.Cl (centres undefined) | 133.825 | 136.72 | 115.054 | 117.733 | 132.628 | 112.241
C[C@H](NC(=O)Nc1cc2[nH]ncc2c(CO)n1)c1ccccn1 [ERKi-NC] | 108.541 | 124.126 | 94.8975 | 86.1568 | 81.1185 | 100.943
Cc1c(NC(=O)COc2ccc(Cl)cc2C(=O)c2cc(F)cc(C(F)(F)F)c2)ccc(C(=O)O)c1F [BI 2540] | 66.158 | 145.555 | 104.073 | 125.125 | 85.0828 | 72.3222
CNC(=O)c1cc(C(=O)N[C@H]2[C@@H]3COC[C@@H]32)cc2c1O[C@H](CF)[C@H]2c1ccccc1 [GSK973] | 97.9061 | 135.509 | 110.942 | 170.924 | 99.5313 | 122.198
CC(=O)c1cc(-c2cc(C(=O)NC3CC3)ccc2C)c2ncccn12 | 68.6867 | 121.421 | 95.4153 | 118.795 | 131.291 | 101.161
CN1C(=O)c2sccc2N(C)c2nc(Nc3ccc(S(N)(=O)=O)cc3)ncc21 | 35.7299 | 84.1947 | 23.972 | 57.2364 | 48.6334 | 48.1427
CN(C)C(=O)c1ccc(-c2cc(C(=O)N[C@@H]3CCc4ccccc43)no2)cc1O | 99.2292 | 104.475 | 113.879 | 93.2478 | 90.3054 | 109.902
CC[C@@H]1C(=O)N(C)c2cnc(Nc3ccc(C(=O)NC4CCN(C)CC4)cc3OC)nc2N1C1CCCC1 [BI-2536] | 3.721 | 168.723 | 3.341 | 324.743 | 2.9466 | 167.188
CC(C)Oc1ccc(-c2nn([C@@H](C)c3oc4ccc(F)cc4c(=O)c3-c3cccc(F)c3)c3ncnc(N)c23)cc1F [UMBRALISIB] | 103.314 | 87.858 | 96.678 | 112.425 | 161.449 | 91.4949
CN(C)CC#Cc1ccc(OCCCc2sc(N3CCc4cccc(C(=O)Nc5nc6ccccc6s5)c4C3)nc2C(=O)O)c(F)c1 [A-1155463] | 1.1769 | 177.943 | 0.3385 | 128.541 | 2.034 | 67.3537
Cc1c(NC(=O)c2cc(C(N)=O)nc3cc(F)ccc23)c(C(F)(F)F)nn1Cc1ccc(C#N)cc1 [BAY-876] | 13.842 | 190.785 | 11.8045 | 337.56 | 20.1463 | 59.1997
CNc1nc(-c2ccc3c(N)n[nH]c3c2)cc(N2C[C@@H](C(=O)NC3CCCCC3)CC[C@H]2C)n1 | 52.0118 | 121.574 | 59.8926 | 53.4401 | 65.7783 | 53.252
CC1CCN(c2ccnc(NCc3cn(C)cn3)n2)CC1 [TP-040] | 75.5826 | 95.0735 | 104.895 | 163.738 | 70.4837 | 82.5883
FC(F)(F)c1ccc2c(c1)nc(-c1cccnc1)n2C1CC1 [MSD-CYP11B2-Negative-control] | 98.4614 | 114.7 | 103.115 | 83.1787 | 73.196 | 81.5774
O=C(CNCc1cc2ccccc2[nH]1)N[C@H]1CC[C@@H](c2nc3ccccc3[nH]2)CC1 | 100.403 | 124.153 | 85.8975 | 91.436 | 106.264 | 107.393
